Source: ChEMBL document CHEMBL1137036, “Synthesis and evaluation of 2-amino-8-alkoxy quinolines as MCHr1 antagonists. Part 3” (Bioorg Med Chem Lett, 2004)

Columns and labels:
[1] = target: T1, Melanin-concentrating hormone receptor 1 (Homo sapiens, UniProt Q99705); experiment: Concentration required to inhibit binding of [125I]MCH radioligand to human Melanin-concentrating hormone receptor 1 in IMR-32 I3.4.2 cell membranes
[2] = Half life in plasma was determined at the peroral dose of 10 mg/kg in diet-induced obese (DIO) mice; format: ADME, organism-based; parameters: dose 10 mg/kg, route oral; details: mouse, po
[3] = Maximum concentration in brain was determined at the peroral dose of 10 mg/kg in diet-induced obese (DIO) mice; unit may be ng/mL or ng/g; format: ADME, organism-based; parameters: dose 10 mg/kg, route oral; details: mouse, po
[4] = Half life in brain was determined at the peroral dose of 10 mg/kg in diet-induced obese (DIO) mice; format: ADME, organism-based; parameters: dose 10 mg/kg, route oral; details: mouse, po
[5] = target: T1, Melanin-concentrating hormone receptor 1; experiment: Concentration required to inhibit 50% of melanin-concentrating hormone induced [Ca2+] flux in IMR-32 cells measured by using a fluorometric imaging plate reader; format: functional, cell-based
[6] = Area under curve in plasma was determined at the peroral dose of 10 mg/kg in diet-induced obese (DIO) mice; unit may be ng.h/mL or ng.h/g; format: ADME, organism-based; parameters: dose 10 mg/kg, route oral; details: mouse, in vivo, po
[7] = Area under curve in brain was determined at the peroral dose of 10 mg/kg in diet-induced obese (DIO) mice; unit may be ng.h/mL or ng.h/g; format: ADME, organism-based; parameters: dose 10 mg/kg, route oral; details: mouse, in vivo, po
[8] = Maximum concentration in plasma was determined at the peroral dose of 10 mg/kg in diet-induced obese (DIO) mice; unit may be ng/mL or ng/g; format: ADME, organism-based; parameters: dose 10 mg/kg, route oral; details: mouse, po
[9] = Brain/plasma ratio was determined in diet-induced obese (DIO) mice; format: ADME, cell-free; details: mouse, brain and plasma
[10] = Area under curve in brain was determined in diet-induced obese (DIO) mice; format: ADME, tissue-based; details: mouse, in vivo

T1 sequence (Q99705 whole entry): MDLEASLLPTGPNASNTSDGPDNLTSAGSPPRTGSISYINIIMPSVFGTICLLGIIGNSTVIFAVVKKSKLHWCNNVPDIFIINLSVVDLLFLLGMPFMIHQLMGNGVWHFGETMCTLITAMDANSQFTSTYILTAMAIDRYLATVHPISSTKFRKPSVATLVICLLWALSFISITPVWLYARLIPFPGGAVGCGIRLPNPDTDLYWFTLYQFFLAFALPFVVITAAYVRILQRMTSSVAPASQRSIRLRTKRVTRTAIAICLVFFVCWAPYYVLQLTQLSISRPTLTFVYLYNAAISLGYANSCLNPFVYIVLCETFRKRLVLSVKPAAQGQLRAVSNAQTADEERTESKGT

IC50 [1]	IC50 [5]	SMILES	also measured
0.9 nM	22.4 nM	Nc1ccc2cccc(OC3CCN(c4ccc5c(c4)OC(F)(F)O5)C3)c2n1 (stereo not drawn)	half-life [2]: 276 min; Cmax [3]: 2860 ng/mL; half-life [4]: 306 min; AUC [6]: 801 ng·h/mL; AUC [7]: 17700 ng·h/mL; Cmax [8]: 331 ng/mL
	7 nM	Nc1ccc2cccc(OCCCNC(=O)c3cccc(Cl)c3)c2n1	Kp [9]: 0.03; AUC [10]: 11 ng·h/mL
149 nM	> 10000 nM	CC(C)Cc1ccc(N2CCC(Oc3cccc4ccc(NCC5CC5)nc34)C2)cc1 (stereo not drawn)	
20.5 nM	224 nM	CCC(c1ccccc1)N1CCC(Oc2cccc3ccc(N)nc23)C1 (stereo not drawn)	
> 2000 nM	> 10000 nM	CN(C)c1ccc2cccc(OC3CCN(c4ccc5c(c4)OCO5)C3)c2n1 (stereo not drawn)	
70 nM	30 nM	Nc1ccc2cccc(O[C@H]3CCN(Cc4ccc5c(c4)OCO5)C3)c2n1	half-life [2]: 390 min; Cmax [3]: 183 ng/mL; half-life [4]: 498 min; AUC [6]: 1350 ng·h/mL; AUC [7]: 1710 ng·h/mL; Cmax [8]: 543 ng/mL
120 nM	1690 nM	Nc1ccc2cccc(O[C@H]3CCN(Cc4ccccc4)C3)c2n1	
1 nM	30 nM	CC(C)(C)c1ccc(CN2CC[C@H](Oc3cccc4ccc(N)nc34)C2)cc1	
2.7 nM	51 nM	Nc1ccc2cccc(OC3CCN(c4ccc5c(c4)OCCO5)C3)c2n1 (stereo not drawn)	
38.6 nM	531 nM	Nc1ccc2cccc(O[C@@H]3CCN(c4ccc5c(c4)OC(F)(F)O5)C3)c2n1	
25.6 nM	244 nM	CNc1ccc2cccc(OC3CCN(c4ccc5c(c4)OCCO5)C3)c2n1 (stereo not drawn)	

More lines, now with the values behind:

SMILES	IC50 [1]	IC50 [5]	also measured
CC(=O)Nc1ccc(CN2CC[C@H](Oc3cccc4ccc(N)nc34)C2)cc1	90 nM	1260 nM	
Nc1ccc2cccc(O[C@H]3CCN(C(=O)c4ccc5c(c4)OCO5)C3)c2n1	730 nM	9140 nM	
CC(C)(C)c1ccc(S(=O)(=O)N2CC[C@H](Oc3cccc4ccc(N)nc34)C2)cc1	210 nM	1140 nM	
CC(C)Cc1ccc(N2CCC(Oc3cccc4ccc(NCc5ccc(-c6cccc(C(F)(F)F)c6)o5)nc34)C2)cc1 (stereo not drawn)	41 nM	41 nM	
Nc1ccc2cccc(O[C@@H]3CCN(Cc4ccc5c(c4)OCO5)C3)c2n1	70 nM	1600 nM	
CC(C)Cc1ccc(N2CCC(Oc3cccc4ccc(N)nc34)C2)cc1 (stereo not drawn)	1.2 nM	53.3 nM	
Nc1ccc2cccc(OCCCNCc3ccc(Cl)c(C(F)(F)F)c3)c2n1			Kp [9]: 0.96; AUC [10]: 9520 ng·h/mL
CC(Cc1ccc2c(c1)OCO2)N1CCC(Oc2cccc3ccc(N)nc23)C1 (stereo not drawn)	2.2 nM	79.2 nM	
Nc1ccc2cccc(O[C@@H]3CCN(Cc4ccccc4)C3)c2n1	580 nM	> 10000 nM	
